These results are taken from US20250275966A1, “GABAA RECEPTOR MODULATOR SALTS, PARTICLES, AND USES THEREOF” (Engrail Therapeutics, Inc., priority 2022, published 2025).

The format of the data set is physicochemical. As for the experimental part:
A hemi-fumarate Form A (acetonitrile solvate) and hemi-fumarate Form B (non-solvated) of 3-(2,5-difluorophenyl)-7-[1,1-di(methyl-d3)ethyl-2,2,2-d3]-6-[(1-methyl-1H-1,2,4-triazol-5-yl)methoxy]-1,2,4-triazolo[4,3-b]pyridazine were prepared. A seed crystal for Form B was prepared by first combining 20.3 mg ([…]) 3-(2,5-difluorophenyl)-7-[1,1-di(methyl-d3)ethyl-2,2,2-d3]-6-[(1-methyl-1H-1,2,4-triazol-5-yl)methoxy]-1,2,4-triazolo[4,3-b]pyridazine with 1000 μL acetone. Fumaric acid/EtOH was added ([…], 1.0 eq) and the sample was continuously stirred while cycling the temperature between 40° C. and 5° C. (heating and cooling at 2° C./min. with 1 hour hold at 40° C. and 5° C.) for 48 hours. The samples were isolated at 5° C. and the suspension was equilibrated with stirring at 20° C. for 2 hours. Birefringent solids were harvested by filtration at room temperature and air-dried overnight. 3-(2,5-difluorophenyl)-7-[1,1-di(methyl-d3)ethyl-2,2,2-d3]-6-[(1-methyl-1H-1,2,4-triazol-5-yl)methoxy]-1,2,4-triazolo[4,3-b]pyridazine (5.51 mmol) was combined with acetone ([…], 16 vol). To the resulting solution (with minimal residual solids), fumaric acid (575 mg, 1.0 eq) was added, followed by seeding, e.g., with Form B (˜10 mg). […]

In the case of `[2H]C([2H])([2H])C(c1cc2nnc(-c3cc(F)ccc3F)n2nc1OCc1ncnn1C)(C([2H])([2H])[2H])C([2H])([2H])[2H]` [Form A, 3-(2,5-difluorophenyl)-7-[1,1-di(methyl-d3)ethyl-2,2,2-d3]-6-[(1-methyl-1H-1,2,4-triazol-5-yl)methoxy]-1,2,4-triazolo[4,3-b]pyridazine], the “solid form stability at ambient conditions” value is “converted to Form B”.
